These results are taken from BindingDB's records for doi:10.1016/s0960-894x(00)00605-3 (Merck Research Laboratories, 2001).

The nature of assay [1]: Inhibitory activity against histone deacetylase enzyme derived from partially purified extracts of Eimeria tenella protozoa using [3H]11 as radioligand.
The target in assay [2] is histone deacetylase enzyme from partially purified extracts of Eimeria tenella. The assay is described as follows: ChEBML_79057. From the text: Inhibitory activity against histone deacetylase enzyme derived from partially purified extracts of Eimeria tenella protozoa using [3H]11 as radioligand
Assay [3] concerns the target Histone deacetylase (Eimeria tenella). Briefly: Binding affinity towards HDAC enzyme derived from Eimeria tenella protozoa.

In assay [1], `CCC(=O)CCCCC[C@@H]1NC(=O)[C@H]2CCCCN2C(=O)[C@H]([C@@H](C)CC)NC(=O)[C@H](C(=O)c2c[nH]c3ccccc23)NC1=O` yielded an IC50 of 10 nM.

In assay [2], `CCC(=O)CCCCC[C@@H]1NC(=O)[C@H]2CCCCN2C(=O)[C@H]([C@@H](C)CC)NC(=O)[C@H](c2cnc3ccccc3c2N2CCCCC2)NC1=O` registered an IC50 of 0.8 nM. In addition, the affinity in assay [3] corresponds to a Ki of 20 nM.

In the case of `CCC(=O)CCCCC[C@@H]1NC(=O)[C@H]2CCCCN2C(=O)[C@H]([C@@H](C)CC)NC(=O)[C@H](CC2CN(OC)c3ccc(Br)cc32)NC1=O` (stereo not given in full), the IC50 in assay [2] is 2500 nM.

Consider `CCCn1cc(C(O)c2nc(O)c(CCCCCC(=O)CC)[nH]c(O)c3n(c(O)c([C@@H](C)CC)[nH]c2=O)CCCC3)c2ccccc21` (stereo not given in full), for which it took 4 nM to reach half-maximal inhibition in assay [2] (IC50).

`CCC(=O)CCCCCc1[nH]c(O)c2n(c(O)c([C@@H](C)CC)[nH]c(=O)c(C(O)c3ccc4c(ccn4C)c3)nc1O)CCCC2` (stereo not given in full) gave an IC50 in assay [2] of 30 nM.

On to `CCC(=O)CCCCC[C@@H]1NC(=O)[C@H]2CCCCN2C(=O)[C@H]([C@@H](C)CC)NC(=O)[C@H](c2cn(OC)c3ccccc3c2=O)NC1=O`, for which, in assay [2], the IC50 came out at 4 nM. The same molecule had a Ki in assay [3] of 30 nM.

In the case of `CCC(=O)CCCCCc1[nH]c(O)c2n(c(O)c([C@@H](C)CC)[nH]c(=O)c(C(O)c3c[nH]c4ccccc34)nc1O)CCCC2` (stereo not given in full), the IC50 in assay [2] was found to be 23 nM.

`CCC(=O)CCCCC[C@@H]1NC(=O)[C@H]2CCCCN2C(=O)[C@H]([C@@H](C)CC)NC(=O)[C@H](Cc2cn(CC)c3ccccc23)NC1=O` showed an IC50 in assay [2] of 100 nM.

For `CCC(=O)CCCCC[C@@H]1NC(=O)[C@H]2CCCCN2C(=O)[C@H]([C@@H](C)CC)NC(=O)[C@H](c2cn(CC)c3ccccc3c2=O)NC1=O`, the IC50 in assay [2] stood at 11 nM. This molecule gave a Ki in assay [3] of 70 nM.

The molecule `CCC(=O)CCCCC[C@@H]1NC(=O)[C@H]2CCCCN2C(=O)[C@H]([C@@H](C)CC)NC(=O)[C@H](c2cnc3ccccc3c2O)NC1=O` registered a Ki in assay [3] of 10 nM.

In assay [2], `CCC(=O)CCCCC[C@@H]1NC(=O)[C@H]2CCCCN2C(=O)[C@H]([C@@H](C)CC)NC(=O)[C@H](Cc2cn(C)c3ccccc23)NC1=O` displayed an IC50 of 5 nM.

In turn, `CCC(=O)CCCCC[C@@H]1NC(=O)[C@H]2CCCCN2C(=O)[C@H]([C@@H](C)CC)NC(=O)[C@H](CCOc2ccccc2)NC1=O` yielded an IC50 in assay [2] of 3 nM.

`CCC(=O)CCCCCc1[nH]c(O)c2n(c(O)c([C@@H](C)CC)[nH]c(=O)c(CC(O)c3ccccc3[N+](=O)[O-])nc1O)CCCC2` (stereo not given in full): the IC50 in assay [2] was determined as 33 nM.

In turn, `CCC(=O)CCCCC[C@@H]1NC(=O)[C@H]2CCCCN2C(=O)[C@H]([C@@H](C)CC)NC(=O)[C@H](Cc2cn(OC)c3ccc(Br)cc23)NC1=O` displayed an IC50 in assay [2] of 175 nM.

Consider `CCC(=O)CCCCC[C@@H]1NC(=O)[C@H]2CCCCN2C(=O)[C@H]([C@@H](C)CC)NC(=O)[C@H](Cc2c[nH]c3ccccc23)NC1=O`, for which, in assay [2], half-maximal inhibition (IC50) required 1 nM.

In turn, `CCC(=O)CCCCC[C@@H]1NC(=O)[C@H]2CCCCN2C(=O)[C@H]([C@@H](C)CC)NC(=O)[C@H](Cc2c(-c3ccc4c(ccn4C)c3)[nH]c3ccccc23)NC1=O` came in with an IC50 in assay [2] of 25 nM.

For the molecule `CCC(=O)CCCCC[C@@H]1NC(=O)[C@H]2CCCCN2C(=O)[C@H]([C@@H](C)CC)NC(=O)[C@H](Cc2c(Br)[nH]c3ccccc23)NC1=O`, inhibition in assay [2] was half-maximal at 200 nM (IC50).

In turn, `CCC(=O)CCCCC[C@@H]1NC(=O)[C@H]2CCCCN2C(=O)[C@H]([C@@H](C)CC)NC(=O)[C@H](c2cnc3ccccc3c2Cl)NC1=O` yielded an IC50 in assay [2] of 2 nM. The molecule further showed a Ki in assay [3] of 50 nM.

`CCCCCCCCCCC(=O)C[C@@H]1NC(=O)[C@H](CCCCCC(=O)CC)NC(=O)[C@H]2CCCCN2C(=O)[C@H]([C@@H](C)CC)NC1=O` gave a Ki in assay [3] above 1000 nM.

The molecule `CCC(=O)CCCCC[C@@H]1NC(=O)[C@H]2CCCCN2C(=O)[C@H]([C@@H](C)CC)NC(=O)[C@H](Cc2cn(CC(=O)O)c3ccccc23)NC1=O` returned an IC50 in assay [2] of 100 nM.

In assay [3], `CCC(=O)CCCCC[C@@H]1NC(=O)[C@H]2CCCCN2C(=O)[C@H]([C@@H](C)CC)NC(=O)[C@@H](c2cnc3ccccc3c2O)NC1=O` displayed a Ki of 250 nM.

In general, IC50 refers to the concentration that gives 50% inhibition. Usually Ki stands for the equilibrium dissociation constant of an inhibitor or competing ligand from its target.
